Reference: ChEMBL document CHEMBL1201862, “PubChem BioAssay data set” (2004)
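Cells were grown in 96-well plates and exposed to each compound for 48 hours at five concentrations; endpoints were interpolated linearly between bracketing concentrations, or set to the highest concentration if not reached. Abbreviation: GI50, concentration required for 50% inhibition of growth.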 Activity calls are given as the source filed them. Rule as the data show it: active = GI50 up to about 1.1 µM and inactive = higher.

Tests used:
Assay in all cases: DTP human tumour cell line panel, 48 h
[1] = test system: DMS-114
[2] = test system: XF498
[3] = test system: M19-MEL
[4] = test system: DLD-1
[5] = test system: DMS-273
[6] = test system: LXFL 529
[7] = test system: SNB-78
[8] = test system: HOP-18
[9] = test system: RXF 631

## OCC(O)C(O)C(O)C(O)c1nnn[nH]1 (stereo unspecified)
[1]
  GI50: > 100 µM (inactive)
[2]
  GI50: > 100 µM (inactive)
[3]
  GI50: > 100 µM (inactive)
[4]
  GI50: > 100 µM (inactive)
[5]
  GI50: > 100 µM (inactive)
[6]
  GI50: > 100 µM (inactive)
[7]
  GI50: > 100 µM (inactive)

## O=C(Nc1cccc(C(F)(F)F)c1)C(=O)C1NC(=S)NC1=O (stereo unspecified)
[1]
  GI50: > 100 µM (inactive)
[8]
  GI50: > 100 µM (inactive)
[3]
  GI50: > 100 µM (inactive)
[4]
  GI50: > 100 µM (inactive)
[5]
  GI50: > 100 µM (inactive)
[6]
  GI50: > 100 µM (inactive)
[7]
  GI50: > 100 µM (inactive)

## Cn1c(=O)c(/N=N/c2c(=O)n(C)c(=O)n3c2[nH]c2ccccc23)c2[nH]c3ccccc3n2c1=O
[1]
  GI50: 63 µM (inactive)
[2]
  GI50: > 100 µM (inactive)
[8]
  GI50: 24 µM (inactive)
[3]
  GI50: > 100 µM (inactive)
[4]
  GI50: > 100 µM (inactive)
[5]
  GI50: > 100 µM (inactive)
[6]
  GI50: 20 µM (inactive)
[9]
  GI50: 85.7 µM (inactive)
[7]
  GI50: > 100 µM (inactive)

## Cc1nc(N2N=C(c3ccc(Cl)cc3)CCC2=O)sc1[N+](=O)[O-]
[1]
  GI50: > 100 µM (inactive)
[2]
  GI50: > 100 µM (inactive)
[8]
  GI50: > 100 µM (inactive)
[3]
  GI50: > 100 µM (inactive)
[4]
  GI50: > 100 µM (inactive)
[5]
  GI50: > 100 µM (inactive)
[6]
  GI50: > 100 µM (inactive)
[7]
  GI50: > 100 µM (inactive)

## COc1cc2c(cc1OC)C(Cc1cc(Br)c(OC)c(OC)c1)=[N+](C)CC2
[1]
  GI50: 2.52 µM (inactive)
[8]
  GI50: > 100 µM (inactive)
[3]
  GI50: 56.1 µM (inactive)
[4]
  GI50: 80 µM (inactive)
[6]
  GI50: 9.73 µM (inactive)
[7]
  GI50: 92.5 µM (inactive)

## Cc1ccc(NC(=O)c2cc3cc(/N=N/c4ccccc4C(=O)O)ccc3oc2=O)cc1
[1]
  GI50: 24 µM (inactive)
[2]
  GI50: 33 µM (inactive)
[8]
  GI50: 32 µM (inactive)
[4]
  GI50: 41 µM (inactive)
[5]
  GI50: 37.4 µM (inactive)

## Cc1ccc(S(=O)(=O)NC(=O)NCCc2ccccc2)cc1
[1]
  GI50: 62.1 µM (inactive)
[2]
  GI50: > 100 µM (inactive)
[8]
  GI50: > 100 µM (inactive)
[3]
  GI50: > 100 µM (inactive)
[4]
  GI50: > 100 µM (inactive)
[6]
  GI50: > 100 µM (inactive)
[7]
  GI50: > 100 µM (inactive)

## O=c1[nH]c(-c2ccccc2)nc2ccc(Cl)cc12
[1]
  GI50: > 100 µM (inactive)
[3]
  GI50: 54.3 µM (inactive)
[5]
  GI50: 45.9 µM (inactive)
[6]
  GI50: 29.4 µM (inactive)
[7]
  GI50: 93.8 µM (inactive)

## O=C1C(O)=C(CC=C(Cl)Cl)C(=O)c2ccccc21
[1]
  GI50: 18 µM (inactive)
[2]
  GI50: 32.3 µM (inactive)
[8]
  GI50: 25.4 µM (inactive)
[3]
  GI50: 7.64 µM (inactive)
[4]
  GI50: 1.65 µM (inactive)
[5]
  GI50: 2.04 µM (inactive)
[6]
  GI50: 2.38 µM (inactive)
[7]
  GI50: 21.9 µM (inactive)

## NCCCNCc1c2ccccc2c(CNCCCN)c2ccccc12
[1]
  GI50: 14.3 µM (inactive)
[8]
  GI50: 25.1 µM (inactive)
[3]
  GI50: 14.7 µM (inactive)
[4]
  GI50: 34.6 µM (inactive)
[6]
  GI50: 11.4 µM (inactive)
[7]
  GI50: 22.5 µM (inactive)

## O=C(NNC(=O)/C(=C/c1cccc([N+](=O)[O-])c1)NC(=O)c1ccccc1)Nc1ccc(Cl)cc1
[1]
  GI50: 11.5 µM (inactive)
[2]
  GI50: 9.53 µM (inactive)
[8]
  GI50: 15.6 µM (inactive)
[3]
  GI50: 15.2 µM (inactive)
[4]
  GI50: 12.6 µM (inactive)
[5]
  GI50: 12.9 µM (inactive)
[6]
  GI50: 10.6 µM (inactive)
[9]
  GI50: 10.2 µM (inactive)
[7]
  GI50: 24 µM (inactive)

## CCN1C[C@]2(C)CC[C@H](O)C34C1C(C[C@@H]32)[C@@]1(O)CC[C@H]2C[C@@H]4[C@@H]1[C@H]2O
[1]
  GI50: > 100 µM (inactive)
[8]
  GI50: > 100 µM (inactive)
[3]
  GI50: > 100 µM (inactive)
[4]
  GI50: > 100 µM (inactive)
[5]
  GI50: > 100 µM (inactive)
[6]
  GI50: > 100 µM (inactive)
[7]
  GI50: 88.7 µM (inactive)

## C[C@]12C=CC(=O)C=C1[C@@H](F)C[C@H]1[C@@H]3CC[C@](O)(C(=O)CO)[C@@]3(C)C[C@H](O)[C@@]12F
[1]
  GI50: > 100 µM (inactive)
[2]
  GI50: 97.7 µM (inactive)
[3]
  GI50: > 100 µM (inactive)
[4]
  GI50: > 100 µM (inactive)
[5]
  GI50: > 100 µM (inactive)
[6]
  GI50: > 100 µM (inactive)
[7]
  GI50: > 84.1 µM (inactive)

## O=C(OCc1ccccc1C1CSCSC1)c1cc(C(=O)OCc2ccccc2C2CSCSC2)c(C(=O)OCc2ccccc2C2CSCSC2)cc1C(=O)OCc1ccccc1C1CSCSC1
[1]
  GI50: > 100 µM (inactive)
[8]
  GI50: > 100 µM (inactive)
[3]
  GI50: > 100 µM (inactive)
[4]
  GI50: > 100 µM (inactive)
[5]
  GI50: > 100 µM (inactive)
[6]
  GI50: > 100 µM (inactive)
[7]
  GI50: 78.9 µM (inactive)

## O=C(CSc1nnc(-c2ccc(/N=C\c3ccc(Cl)cc3)cc2)o1)Nc1ccc(Cl)cc1Cl
[2]
  GI50: 17.7 µM (inactive)
[8]
  GI50: 11.6 µM (inactive)
[3]
  GI50: 31.7 µM (inactive)
[4]
  GI50: 27.3 µM (inactive)
[5]
  GI50: 34.3 µM (inactive)
[6]
  GI50: 22.4 µM (inactive)
[7]
  GI50: > 100 µM (inactive)

## N#Cc1ccccc1/C=N/O
[1]
  GI50: > 59.4 µM (inactive)
[2]
  GI50: > 100 µM (inactive)
[8]
  GI50: > 100 µM (inactive)
[3]
  GI50: > 100 µM (inactive)
[4]
  GI50: > 93.8 µM (inactive)
[5]
  GI50: > 41.4 µM (inactive)
[6]
  GI50: > 91.4 µM (inactive)
[7]
  GI50: > 100 µM (inactive)

## COC(=O)C1=C(C[S+]([O-])c2ccc([N+](=O)[O-])cc2[N+](=O)[O-])ON(C)C1c1ccccc1 (stereo unspecified)
[1]
  GI50: 27.7 µM (inactive)
[2]
  GI50: 37.3 µM (inactive)
[8]
  GI50: 22.6 µM (inactive)
[3]
  GI50: 34.3 µM (inactive)
[4]
  GI50: 33.8 µM (inactive)
[5]
  GI50: 36.2 µM (inactive)
[6]
  GI50: 30.1 µM (inactive)
[9]
  GI50: 99.5 µM (inactive)
[7]
  GI50: 33.9 µM (inactive)

## C/C(=N\Nc1ccccc1)c1sc(-c2nc(C)c(/C(C)=N/Nc3ccccc3)s2)nc1C
[1]
  GI50: 11.5 µM (inactive)
[2]
  GI50: 45.6 µM (inactive)
[8]
  GI50: > 45 µM (inactive)
[3]
  GI50: 17.2 µM (inactive)
[4]
  GI50: 22.1 µM (inactive)
[5]
  GI50: 8.93 µM (inactive)
[6]
  GI50: 7.06 µM (inactive)
[7]
  GI50: > 64.7 µM (inactive)

## Fc1ccccc1C1CC(c2ccc3ccccc3c2)=Nc2ccccc2S1 (stereo unspecified)
[2]
  GI50: > 100 µM (inactive)
[8]
  GI50: > 100 µM (inactive)
[3]
  GI50: > 100 µM (inactive)
[5]
  GI50: > 100 µM (inactive)
[6]
  GI50: > 100 µM (inactive)
[7]
  GI50: > 100 µM (inactive)

## CCCCCCCCCCCCCCCC(=O)OCC1OC(n2cc(F)c(=O)[nH]c2=O)C(N)C(O)C1O (stereo unspecified)
[1]
  GI50: 18.8 µM (inactive)
[2]
  GI50: 18.9 µM (inactive)
[8]
  GI50: 16.3 µM (inactive)
[3]
  GI50: 18.7 µM (inactive)
[4]
  GI50: 20.6 µM (inactive)
[6]
  GI50: 18.9 µM (inactive)

## CC(O)C(C(=O)O)N(CC1(O)OCC(O)C(O)C1O)N=O (stereo unspecified)
[1]
  GI50: > 100 µM (inactive)
[2]
  GI50: > 100 µM (inactive)
[3]
  GI50: > 100 µM (inactive)
[4]
  GI50: > 100 µM (inactive)
[5]
  GI50: > 100 µM (inactive)
[6]
  GI50: > 100 µM (inactive)
[9]
  GI50: > 100 µM (inactive)
[7]
  GI50: > 100 µM (inactive)

## Brc1ccccc1C1SCc2nc3ccccc3n21 (stereo unspecified)
[1]
  GI50: 16 µM (inactive)
[8]
  GI50: < 0.01 µM (active)
[3]
  GI50: 15 µM (inactive)
[4]
  GI50: 12.7 µM (inactive)
[6]
  GI50: 15.1 µM (inactive)
[7]
  GI50: 26.4 µM (inactive)
